Assay results: patent US12648965B2, “Use of bovine spleen peptide powder in improving sleep, preventing or treating depression, or improving intestinal function” (BEIJING NO. 1 BIO-TECHNOLOGY DEVELOPMENT CO., LTD., priority 2022, dated 2026)

Legend:
[1] = test system: zebrafish model of insomnia established by PTZ; experiment: Evaluation of the efficacy in improving sleep, PTZ zebrafish model of insomnia; assay type: in vivo; conditions: 125 μg/mL, 24 h, n = 10
From the text: In the present application, a state in which zebrafish is in a speed of movement of greater than 20 mm/s is considered to be an awake state, a state in which the speed of movement is less than 4 mm/s is considered to be a sleep state, and a state in which the speed of movement is 4-20 mm/s corresponds to sleep latency.
As used herein, the term “amount of wake after sleep onset” refers to the distance of movements during which the speed of movement is greater than 20 mm/s.
As used herein, the term “time of wake after sleep onset” refers to the time of movements during which the speed of movement is greater than 20 mm/s.
The 5 dpf wild type zebrafish of line AB were randomly selected and placed in a 6-well plate, and for the experimental groups 30 zebrafish were treated in each well. The positive control melatonin was in a concentration of 125 μg/mL. Meanwhile, the normal control group (fed in a conventional manner) and the model control group (i.e., the zebrafish model of insomnia established by PTZ) were set, with a capacity of 3 mL per well. […] The zebrafish were analyzed for amount of wake after sleep onset and time of wake after sleep onset. The bovine spleen peptide powder was evaluated for its efficacy in sleep improvement through statistical analysis results of the above indicators. The statistical results were expressed as “mean±standard deviation”.

[2] = test system: zebrafish model of gastrointestinal mucosal injury (TNBS); experiment: Evaluation of regulatory efficacy on intestinal goblet cells, TNBS zebrafish model; assay type: in vivo; conditions: 15.0 μg/mL, 2 days after TNBS, n = 10
Description: The 3 dpf wild type zebrafish of line AB were randomly selected and placed in a 6-well plate, and for the experimental groups 30 zebrafish were treated in each well. Except for the normal control group (fed in a conventional manner), all the other experimental groups were given aqueous TNBS to establish a zebrafish model of gastrointestinal mucosal injury. After a 2-day treatment at 28° C., TNBS was removed, and the bovine spleen peptide powder dissolved in water was given at a concentration as shown in Table 9 below. The positive control prednisone was at a concentration of 15.0 μg/mL. Meanwhile, a normal control group and a model control group (i.e., a zebrafish model of gastrointestinal mucosal injury model established by TNBS) were set, with a capacity of 3 mL per well. After a further 2-day treatment at 28° C., 10 zebrafish from each experimental group were randomly selected and placed under the dissecting microscope for photographing. Data were acquired by the NIS-Elements D 3.20 advanced image processing software. The number of goblet cells in the intestine of zebrafish was analyzed. Statistical results were used to evaluate the regulatory efficacy of the goblet cells in the intestine of the zebrafish. The statistical results were expressed as “mean±standard deviation”.

Structure (SMILES)	Amount of wake after sleep onset (mean ± standard deviation) [1] [mm]	Time of wake after sleep onset (mean ± standard deviation) [1] [s]	Number of intestinal goblet cells (mean ± standard deviation) [2] [count]
COc1ccc2[nH]cc(CCNC(C)=O)c2c1 [Melatonin, melatonin]	346 ± 35.3	8.18 ± 0.795	
C[C@]12C=CC(=O)C=C1CC[C@@H]1[C@@H]2C(=O)C[C@@]2(C)[C@H]1CC[C@]2(O)C(=O)CO [Prednisone, prednisone]			47.2 ± 1.89
